One experiment concerns the target T1, Full length Human HDAC6 (Homo sapiens, UniProt Q9UBN7).
T1 construct: Full length Human HDAC6; FLAG (C); host or cells: baculovirus expression system
T1 sequence (Q9UBN7 1-1215): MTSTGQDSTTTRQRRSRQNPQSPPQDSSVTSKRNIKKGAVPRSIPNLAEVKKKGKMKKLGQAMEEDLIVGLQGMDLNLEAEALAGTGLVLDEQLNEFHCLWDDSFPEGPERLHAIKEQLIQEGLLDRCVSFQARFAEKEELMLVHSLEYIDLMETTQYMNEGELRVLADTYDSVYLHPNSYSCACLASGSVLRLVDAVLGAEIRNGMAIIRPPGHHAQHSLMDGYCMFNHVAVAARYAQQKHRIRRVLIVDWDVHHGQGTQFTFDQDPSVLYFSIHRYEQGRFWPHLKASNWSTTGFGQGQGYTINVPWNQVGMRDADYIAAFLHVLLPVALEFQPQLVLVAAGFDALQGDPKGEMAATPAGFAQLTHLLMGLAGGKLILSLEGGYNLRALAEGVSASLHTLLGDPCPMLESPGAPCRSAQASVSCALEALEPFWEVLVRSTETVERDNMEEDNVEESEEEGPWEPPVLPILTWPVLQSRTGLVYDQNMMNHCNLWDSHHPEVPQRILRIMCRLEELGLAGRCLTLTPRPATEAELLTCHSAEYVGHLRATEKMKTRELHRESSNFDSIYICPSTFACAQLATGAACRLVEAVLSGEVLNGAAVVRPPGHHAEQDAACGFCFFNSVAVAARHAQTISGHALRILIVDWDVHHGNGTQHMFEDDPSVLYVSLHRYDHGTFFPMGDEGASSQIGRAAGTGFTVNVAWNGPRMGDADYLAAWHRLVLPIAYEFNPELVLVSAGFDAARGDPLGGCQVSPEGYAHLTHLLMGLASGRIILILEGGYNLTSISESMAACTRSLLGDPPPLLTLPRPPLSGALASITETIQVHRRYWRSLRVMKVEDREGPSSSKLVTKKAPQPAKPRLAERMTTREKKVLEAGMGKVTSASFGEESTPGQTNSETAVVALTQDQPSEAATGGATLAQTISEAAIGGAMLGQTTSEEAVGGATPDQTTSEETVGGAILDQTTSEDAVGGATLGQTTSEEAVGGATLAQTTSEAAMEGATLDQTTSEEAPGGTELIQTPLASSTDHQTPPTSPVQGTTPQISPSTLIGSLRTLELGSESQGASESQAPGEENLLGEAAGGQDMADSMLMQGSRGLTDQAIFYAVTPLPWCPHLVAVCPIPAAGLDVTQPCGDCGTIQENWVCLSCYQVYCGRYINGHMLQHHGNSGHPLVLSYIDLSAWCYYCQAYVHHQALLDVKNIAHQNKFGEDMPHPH
Put plainly: Caliper endpoint assay for HDAC enzymatic activity (HDAC6). Type of experiment: biochemical. As to conditions: for IC50: in vitro enzymatic, Caliper endpoint assay, 30 min pre-incubation, 1 μM substrate peptide; for Selectivity (6 v 8): ratio of HDAC8 IC50/HDAC6 IC50.

For another experiment, the target named is T2, Full length Human HDAC8 (Homo sapiens, UniProt Q9BY41).
T2 construct: Full length Human HDAC8; HIS (N); host or cells: baculovirus expression system
T2 sequence (Q9BY41 1-377): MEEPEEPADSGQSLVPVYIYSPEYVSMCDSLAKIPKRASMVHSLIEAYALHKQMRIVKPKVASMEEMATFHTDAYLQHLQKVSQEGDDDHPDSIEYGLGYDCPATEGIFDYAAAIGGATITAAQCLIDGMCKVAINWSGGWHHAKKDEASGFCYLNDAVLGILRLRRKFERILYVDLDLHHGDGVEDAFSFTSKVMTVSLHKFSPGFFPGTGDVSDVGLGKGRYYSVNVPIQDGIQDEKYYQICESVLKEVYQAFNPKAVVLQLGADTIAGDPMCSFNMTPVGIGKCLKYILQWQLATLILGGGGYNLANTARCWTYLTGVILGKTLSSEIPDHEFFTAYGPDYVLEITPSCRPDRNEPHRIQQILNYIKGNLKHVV
Nature of the experiment: Caliper endpoint assay for HDAC enzymatic activity (HDAC8). In kind it is biochemical. The note with it: in vitro enzymatic, 30 min pre-incubation, 1 μM substrate peptide.

As to `O=C(NO)c1cc(F)c2c(c1)CCN(C1CC3(CCCO3)C1)C2` (single isomer, unassigned) [Compound 190, 8-fluoro-N-hydroxy-2-(5-oxaspiro[3.4]octan-2-yl)-1,2,3,4-tetrahydroisoquinoline-6-carboxamide], on Full length Human HDAC6, the IC50 lay in the range of 1 to 100 nM and the “Selectivity (6 v 8)” value is recorded as “IV (IV: >100-1000)”. This compound had an IC50 at Full length Human HDAC8 of 1000 to 10000 nM.
For `O=C(NO)c1cc(F)c2c(c1)CCN([C@@H]1CCN(C3CC3)C3(CCC3)C1)C2` (single isomer, unassigned) [Compound 440] the same measures were 1 to 100 nM, “IV (IV: >100-1000)” and 1000 to 10000 nM.
With `CC[C@@H]1Cc2c(F)cc(C(=O)NO)cc2CN1C[C@@]12C[C@@H](CO1)N(C)C2` (single isomer, unassigned) [Compound 555], the IC50 at Full length Human HDAC6 and against Full length Human HDAC8 was over 100000 nM throughout. Moreover, the “Selectivity (6 v 8)” value on Full length Human HDAC6 is listed as “V (V: >1000)”.
For `CN1C[C@@]2(CN3CCc4cc(C(=O)NO)cc(F)c4C3)C[C@@H]1CO2` [Compound 474, 8-fluoro-2-[[(1S,4R)-5-methyl-2-oxa-5-azabicyclo[2.2.1]heptan-1-yl]methyl]-3,4-dihydro-1H-isoquinoline-6-carbohydroxamic acid], at Full length Human HDAC6, the IC50 was 1 to 100 nM and the “Selectivity (6 v 8)” value is recorded as “IV (IV: >100-1000)”. The compound also gave an IC50 at Full length Human HDAC8 of 1000 to 10000 nM.
Take `CC[C@@H]1Cc2c(F)cc(C(=O)NO)cc2CN1CC1C2CC1CN(C)C2` (single isomer, unassigned) [Compound 530]: on Full length Human HDAC6, the IC50 is 100 to 1000 nM and the “Selectivity (6 v 8)” value is recorded as “III (III: >10-100)”. Also, at Full length Human HDAC8, the IC50 lay in the range of 10000 to 100000 nM.
With `CN1CC2(C[C@H](N3CCc4cc(C(=O)NO)cc(F)c4C3)CCO2)C1` (single isomer, unassigned) [Compound 452], on Full length Human HDAC6, the IC50 lay in the range of 100 to 1000 nM and the “Selectivity (6 v 8)” value was “III (III: >10-100)”. The IC50 at Full length Human HDAC8 was in the range of 10000 to 100000 nM.
With `[2H]c1c(C(=O)NO)ccc2c1CCN(C1CC3(CCCCC3)C1)C2` [Compound 505, N-hydroxy-2-(spiro[3.5]nonan-2-yl)-1,2,3,4-tetrahydroisoquinoline-5-d-6-carboxamide], on Full length Human HDAC6, the IC50 lay within 1 to 100 nM and the “Selectivity (6 v 8)” value is listed as “IV (IV: >100-1000)”. Besides, the half-maximal inhibitory concentration (IC50) against Full length Human HDAC8 was in the range of 10000 to 100000 nM.
For `O=C(NO)c1cc(F)c2c(c1)C[C@@H]1CC3(CCCCC3)CN1C2` (single isomer, unassigned) [Compound 136], the IC50 on Full length Human HDAC6 lay within 1 to 100 nM; at Full length Human HDAC8, 1000 to 10000 nM.
Consider `O=C(NO)c1cc(F)c2c(c1)CCN(CC13CC(C1)N(C1CC1)C3)C2` [Compound 491, 2-[(2-cyclopropyl-2-azabicyclo[2.1.1]hexan-4-yl)methyl]-8-fluoro-3,4-dihydro-1H-isoquinoline-6-carbohydroxamic acid], for which, at Full length Human HDAC6, the IC50 lay within 1 to 100 nM and the “Selectivity (6 v 8)” value was “IV (IV: >100-1000)”. Also, the IC50 against Full length Human HDAC8 was in the range of 10000 to 100000 nM.
As to `CC(=O)N1CCCCC12CC(N1CCc3cc(C(=O)NO)cc(F)c3C1)C2` (centres unmarked) [Compound 355, 2-(5-acetyl-5-azaspiro[3.5]nonan-2-yl)-8-fluoro-3,4-dihydro-1H-isoquinoline-6-carbohydroxamic acid], on Full length Human HDAC6, the IC50 was 1 to 100 nM and the “Selectivity (6 v 8)” value is recorded as “V (V: >1000)”. Besides, at Full length Human HDAC8, the IC50 lay within 10000 to 100000 nM.
Take `CN1CCC[C@@]2(CC[C@H]2N2CCc3cc(C(=O)NO)cc(F)c3C2)C1` (single isomer, unassigned) [Compound 362]: on Full length Human HDAC6, the IC50 was 100 to 1000 nM and the “Selectivity (6 v 8)” value is given as “III (III: >10-100)”. At Full length Human HDAC8, this compound came in with an IC50 of 10000 to 100000 nM.
For the compound `O=C(NO)c1cc(F)c2c(c1)CCN(C1CC[C@]13CCCO3)C2` (single isomer, unassigned) [Compound 320], the values for the IC50 against Full length Human HDAC6 and at Full length Human HDAC8 were 1 to 100 nM and 10000 to 100000 nM, respectively. Moreover, at Full length Human HDAC6, the “Selectivity (6 v 8)” value is listed as “IV (IV: >100-1000)”.
Take `CC(=O)N1CC2(CCC(CN3CCc4cc(C(=O)NO)cc(F)c4C3)CC2)C1` [Compound 467, 2-[(2-acetyl-2-azaspiro[3.5]nonan-7-yl)methyl]-8-fluoro-3,4-dihydro-1H-isoquinoline-6-carbohydroxamic acid]: the IC50 against Full length Human HDAC6 was in the range of 1 to 100 nM; against Full length Human HDAC8, 10000 to 100000 nM. In addition, the “Selectivity (6 v 8)” value at Full length Human HDAC6 is recorded as “IV (IV: >100-1000)”.
For the compound `O=C(NO)c1cc(F)c2c(c1)CCN([C@H]1C[C@]3(CCCNC3)C1)C2` (single isomer, unassigned) [Compound 341, 8-fluoro-N-hydroxy-2-((2r,4s)-6-azaspiro[3.5]nonan-2-yl)-1,2,3,4-tetrahydroisoquinoline-6-carboxamide], the IC50 against Full length Human HDAC6 is 1 to 100 nM; against Full length Human HDAC8 it was 10000 to 100000 nM. The “Selectivity (6 v 8)” value at Full length Human HDAC6 was “IV (IV: >100-1000)”.
As for `O=C(NO)c1cc(F)c2c(c1)C[C@@H]1CCCCN1C2` [Compound 93], on Full length Human HDAC6, the IC50 was in the range of 1 to 100 nM and the “Selectivity (6 v 8)” value is given as “IV (IV: >100-1000)”. The compound further registered an IC50 against Full length Human HDAC8 of 1000 to 10000 nM.
For `O=C(NO)c1cc(F)c2c(c1)CCN(C1CCC13CCC3)C2` (centres unmarked) [Compound 299, 8-fluoro-2-spiro[3.3]heptan-3-yl-3,4-dihydro-1H-isoquinoline-6-carbohydroxamic acid], at Full length Human HDAC6, the IC50 was in the range of 1 to 100 nM and the “Selectivity (6 v 8)” value was “IV (IV: >100-1000)”. The compound further returned an IC50 on Full length Human HDAC8 of 10000 to 100000 nM.
With `O=C(NO)c1cc(F)c2c(c1)CCN([C@@H]1CCN(Cc3ccccc3)C3(CCC3)C1)C2` (single isomer, unassigned) [Compound 444], the IC50 at Full length Human HDAC6 fell in the range of 1 to 100 nM; at Full length Human HDAC8 it was 10000 to 100000 nM. Moreover, at Full length Human HDAC6, the “Selectivity (6 v 8)” value is “IV (IV: >100-1000)”.
Consider `CC[C@H]1Cc2c(F)cc(C(=O)NO)cc2CN1CC12CC3CC(CC(C3)O1)C2` (single isomer, unassigned) [Compound 510], for which, on Full length Human HDAC6, the IC50 is 1 to 100 nM and the “Selectivity (6 v 8)” value was “IV (IV: >100-1000)”. The compound further yielded an IC50 against Full length Human HDAC8 of 1000 to 10000 nM.
For `CC[C@H]1Cc2c(F)cc(C(=O)NO)cc2CN1C[C@@]12C[C@@H](CO1)N(C)C2` (single isomer, unassigned) [Compound 553] the same measures were 1 to 100 nM, “IV (IV: >100-1000)” and 10000 to 100000 nM.
`CN1CC[C@@]2(CC[C@H]2N2CCc3cc(C(=O)NO)cc(F)c3C2)C1` (single isomer, unassigned) [Compound 331]: at Full length Human HDAC6, the IC50 fell in the range of 1 to 100 nM and the “Selectivity (6 v 8)” value is given as “IV (IV: >100-1000)”. This compound also registered an IC50 against Full length Human HDAC8 of 10000 to 100000 nM.
`CC[C@H]1Cc2c(F)cc(C(=O)NO)cc2CN1C[C@@H]1C[C@H]2CC[C@@H](C1)N2C` (single isomer, unassigned) [Compound 573]: on Full length Human HDAC6, the IC50 was in the range of 1 to 100 nM and the “Selectivity (6 v 8)” value is given as “IV (IV: >100-1000)”. On Full length Human HDAC8, this compound returned an IC50 of 1000 to 10000 nM.
Consider `CC[C@@H]1Cc2c(F)cc(C(=O)NO)cc2CN1CC1CCCCC1` (single isomer, unassigned) [Compound 517], for which the half-inhibitory concentration (IC50) against Full length Human HDAC6 lay within 1 to 100 nM; against Full length Human HDAC8, 1000 to 10000 nM. Also, the “Selectivity (6 v 8)” value at Full length Human HDAC6 is on record as “III (III: >10-100)”.
As to `O=C(NO)c1ccc2c(c1)CCN1CCCC[C@H]21` [Compound 90], at Full length Human HDAC6, the IC50 was in the range of 1000 to 10000 nM and the “Selectivity (6 v 8)” value is listed as “II (II: >1-10)”. Besides, the IC50 at Full length Human HDAC8 was 1000 to 10000 nM.
As to `O=C(NO)c1cc(F)c2c(c1)CCN(CC1CC3CCC(C1)N3C1CC1)C2` (centres unmarked) [Compound 484, 2-[(8-cyclopropyl-8-azabicyclo[3.2.1]octan-3-yl)methyl]-8-fluoro-3,4-dihydro-1H-isoquinoline-6-carbohydroxamic acid], at Full length Human HDAC6, the IC50 fell in the range of 1 to 100 nM and the “Selectivity (6 v 8)” value is “IV (IV: >100-1000)”. In addition, on Full length Human HDAC8, the IC50 lay within 1000 to 10000 nM.

One may read the IC50 as the concentration at which inhibition is half-maximal. Higher therefore signals weaker potency.
